Columns and labels:
various unwanted plants [1] = test: Pre-emergence effect against various unwanted plants (PE): comparative test of I-01 with compounds from WO2020/245044 (Tables 40a, 40b) and summary statements; type: in vivo; settings: comparative test
Description: Seeds of monocotyledonous and dicotyledonous weed plants and crop plants are placed in plastic or organic planting pots and covered with soil. The compounds of the invention, formulated in the form of wettable powders (WP) or as emulsion concentrates (EC), are then applied to the surface of the covering soil as aqueous suspension or emulsion with addition of 0.5% additive at a water application rate equivalent to 600 l/ha. After the treatment, the pots are placed in a greenhouse and kept under good growth conditions for the trial plants. After about 3 weeks, the effect of the preparations is scored visually in comparison with untreated controls as percentages. For example, 100% activity=the plants have died, 0% activity=like control plants. Tables 40a and 40b below show the effects of the inventive compound (I-01) with structurally similar compounds (from WO2020/245044) on various harmful plants at an application rate corresponding to 320 g/ha or less, which have been obtained by the trial procedure specified hereinafter. The inventive compound (I-01) differs here by variance of a significant structural feature from the structurally similar compound with regard to the R^2 radical. Seeds of monocotyledonous and dicotyledonous weed plants and crop plants are placed in plastic or organic planting pots and covered with soil. The compounds of the invention, formulated in the form of wettable powders (WP) or as emulsion concentrates (EC), are then applied to the surface of the covering soil as aqueous suspension or emulsion with addition of 0.5% additive at a water application rate equivalent to 600 l/ha. After the treatment, the pots are placed in a greenhouse and kept under good growth conditions for the trial plants. After about 3 weeks, the effect of the preparations is scored visually in comparison with untreated controls as percentages. For example, 100% activity=the plants have died, 0% activity=like control plants. Effects/crop compatibilities of selected compounds (Table 39) on various harmful plants at an application rate corresponding to 80 to 320 g/ha that have been obtained by the trial procedure specified hereinabove are shown in Tables 40a and 40b below.

various unwanted plants [2] = test: Post-emergence effect against various unwanted plants (PO): comparative test of I-01 with compounds from WO2020/245044 (Tables 41a, 41b) and summary statements; type: in vivo; settings: comparative test
Description: Seeds of monocotyledonous and dicotyledonous weeds and crop plants are placed in sandy loam in plastic or organic planting pots, covered with soil and cultivated in a greenhouse under controlled growth conditions. 2 to 3 weeks after sowing, the trial plants are treated at the one-leaf stage. The compounds of the invention, formulated in the form of wettable powders (WP) or as emulsion concentrates (EC), are then sprayed onto the green parts of the plants as aqueous suspension or emulsion with addition of 0.5% additive at a water application rate of 600 l/ha (converted). After the test plants have been kept in the greenhouse under optimum growth conditions for about 3 weeks, the activity of the preparations is rated visually in comparison to untreated controls. For example, 100% activity=the plants have died, 0% activity=like control plants. […] Tables 41a and 41b below show the effects of the inventive compound (I-01) with structurally similar compounds (WO2020/245044) on various harmful plants at an application rate corresponding to 320 g/ha or less, which have been obtained by the trial procedure specified hereinafter. The inventive compound (I-01) differs here by variance of a significant structural feature from the structurally similar compound with regard to the R^2 radical. Seeds of monocotyledonous and dicotyledonous weeds and crop plants are placed in sandy loam in plastic or organic planting pots, covered with soil and cultivated in a greenhouse under controlled growth conditions. 2 to 3 weeks after sowing, the trial plants are treated at the one-leaf stage. The compounds of the invention, formulated in the form of wettable powders (WP) or as emulsion concentrates (EC), are then sprayed onto the green parts of the plants as aqueous suspension or emulsion with addition of 0.5% additive at a water application rate of 600 l/ha (converted). After the test plants have been kept in the greenhouse under optimum growth conditions for about 3 weeks, the activity of the preparations is rated visually in comparison to untreated controls. For example, 100% activity=the plants have died, 0% activity=like control plants. Effects/crop compatibilities of selected compounds (see Table 39) on various harmful plants at an application rate corresponding to 80 to 320 g/ha that have been obtained by the trial procedure specified hereinafter are shown in Tables 41a and 41b below.

Row | Structure (SMILES) | Pre-emergence effect, Effect %, ALOMY (various unwanted plants [1]; ALOMY, 320 g/ha) | Pre-emergence effect, Effect %, ECHCG (various unwanted plants [1]; 80 g/ha) | Pre-emergence effect, Effect %, ECHCG (various unwanted plants [1]; 320 g/ha) | Pre-emergence effect, Effect %, LOLRI (various unwanted plants [1]; 80 g/ha) | Pre-emergence effect, Effect %, LOLRI (various unwanted plants [1]; 320 g/ha) | Pre-emergence effect, Effect %, MATIN (various unwanted plants [1]; 80 g/ha) | Pre-emergence effect, Effect %, MATIN (various unwanted plants [1]; 320 g/ha) | Pre-emergence effect, Effect %, POLCO (various unwanted plants [1]; POLCO, 80 g/ha) | Pre-emergence effect, Effect %, SETVI (various unwanted plants [1]; SETVI, 320 g/ha) | Post-emergence effect, Effect %, ALOMY (various unwanted plants [2]; 80 g/ha) | Post-emergence effect, Effect %, ALOMY (various unwanted plants [2]; 320 g/ha) | Post-emergence effect, Effect %, AVEFA (various unwanted plants [2]; 80 g/ha) | Post-emergence effect, Effect %, AVEFA (various unwanted plants [2]; 320 g/ha) | Post-emergence effect, Effect %, ECHCG (various unwanted plants [2]; 80 g/ha) | Post-emergence effect, Effect %, ECHCG (various unwanted plants [2]; 320 g/ha) | Post-emergence effect, Effect %, LOLRI (various unwanted plants [2]; 80 g/ha) | Post-emergence effect, Effect %, LOLRI (various unwanted plants [2]; 320 g/ha) | Post-emergence effect, Effect %, SETVI (various unwanted plants [2]; 80 g/ha) | Post-emergence effect, Effect %, SETVI (various unwanted plants [2]; 320 g/ha)
1 | CCCC(Oc1nn(-c2ccccc2F)c(-c2ccc(F)nc2)c1Br)C(=O)OCC (stereo not drawn) [A] | 60% | 0% | 80% | 20% | 30% | 0% | 30% | 20% | 70% | 0% | 50% | 30% | 40% | 50% | 80% | 0% | 20% | 20% | 70%
2 | CCOC(=O)COc1nn(-c2ccccc2F)c(-c2ccc(F)nc2)c1Br [B] |  |  |  |  |  |  |  |  |  | 70% |  | 80% |  | 50% |  | 30% |  | 70% | 

— patent US20240391862A1, “(1,4,5-TRISUBSTITUTED-1H-PYRAZOL-3-YL)OXY-2-ALKOXY ALKYL ACIDS AND THEIR DERIVATIVES, THEIR SALTS AND THEIR USE AS HERBICIDAL AGENTS” (Bayer AKtiengesellschaft, priority 2021, published 2024)
